Data published in BindingDB's records for doi:10.3109/14756366.2011.649267 (South Dakota State University, 2013).

Target: T1, Glutaredoxin-1 (Human, UniProt P35754)
T1 sequence (P35754 whole entry): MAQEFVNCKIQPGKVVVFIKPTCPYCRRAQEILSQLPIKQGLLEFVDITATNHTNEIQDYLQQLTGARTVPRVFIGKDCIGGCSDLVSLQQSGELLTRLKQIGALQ
Assay: GRX Assay
Settings: pH 8; 25 °C
Procedure: Human GRX-1 (0.25 unit/mL) was incubated at 25 °C with increasing concentrations of 2-AAPA (25, 50, 100, and 200 μM) and BSA (1 mg/mL). Aliquots were withdrawn for determination of GRX activity at 3, 10, and 20 min. Control incubations without 2-AAPA were conducted in parallel. The aliquots were added to the GRX assay solution, and enzyme activity was determined from a coupled reaction with GR based on a literature reported procedure with minor modification. In this assay, a mixed disulfide between GSH and the mercaptoethanol moiety derived from 2-hydroxyethyldisulfide (HED) served as the substrate for GRX; briefly GSH (10 mM) and HED (7 mM) were premixed in water for 5 min before transferring onto ice. The final GRXassay solution contained GSH (1 mM), HED (0.7mM), GR (0.02 units/mL), NADPH (0.2 mM), and bovine serum albumin (BSA, 1 mg/mL) in Trisbuffer (pH 8, 0.1 M). Theactivity was determined by monitoring the disappearance of NADPH spectrophotometrically at λ = 340 nm [Holmgren et al., Meth. Enzymol., 252:283-292].

Ki: 91.3 µM
SMILES: CC(=O)NC(CSC(=S)Nc1ccc(NC(=S)SCC(NC(C)=O)C(=O)O)cc1)C(=O)O (stereo unspecified) [2-AAPA]
